According to paper PMC4300089, “Structure-Guided Design of Selective Epac1 and Epac2 Agonists” (PLoS Biology, 2015):

Assays:
Epac1 = molecular target: T1, Epac1 (Homo sapiens, UniProt O95398); test: Epac activation assay, Epac1; type: biochemical; conditions: Epac1; for Rel. kmax: maximal activity relative to cAMP
T1 construct: made in house
T1 sequence (O95398 150-881 isoform O95398-3): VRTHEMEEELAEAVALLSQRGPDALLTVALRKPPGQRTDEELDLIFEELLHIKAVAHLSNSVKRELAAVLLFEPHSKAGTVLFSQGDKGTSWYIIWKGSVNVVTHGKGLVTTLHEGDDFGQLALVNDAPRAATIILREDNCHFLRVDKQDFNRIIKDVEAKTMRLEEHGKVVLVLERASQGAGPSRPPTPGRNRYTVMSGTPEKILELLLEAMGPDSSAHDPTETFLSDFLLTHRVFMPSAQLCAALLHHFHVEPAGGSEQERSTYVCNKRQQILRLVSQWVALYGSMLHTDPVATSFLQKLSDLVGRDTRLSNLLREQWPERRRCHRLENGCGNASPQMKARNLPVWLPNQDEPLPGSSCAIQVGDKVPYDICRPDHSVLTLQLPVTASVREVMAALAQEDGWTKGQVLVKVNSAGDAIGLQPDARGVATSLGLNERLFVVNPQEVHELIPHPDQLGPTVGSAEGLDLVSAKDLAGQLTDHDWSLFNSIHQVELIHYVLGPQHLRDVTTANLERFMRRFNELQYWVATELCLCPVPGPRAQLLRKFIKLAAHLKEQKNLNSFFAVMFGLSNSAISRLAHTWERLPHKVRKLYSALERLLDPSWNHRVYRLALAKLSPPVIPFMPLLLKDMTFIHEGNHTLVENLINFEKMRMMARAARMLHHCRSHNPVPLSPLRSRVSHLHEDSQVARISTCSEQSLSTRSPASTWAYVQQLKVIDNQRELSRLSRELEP

Epac2^Δ280 = molecular target: T2, Epac2^Δ280 (Mus musculus, UniProt Q9EQZ6); test: Epac activation assay (Rap1B•mGDP fluorescence nucleotide exchange), Epac2^Δ280; type: biochemical; conditions: Epac2^Δ280; for Rel. kmax: maximal activity relative to cAMP
T2 construct: made in house
T2 sequence (Q9EQZ6 281-993 isoform Q9EQZ6-3): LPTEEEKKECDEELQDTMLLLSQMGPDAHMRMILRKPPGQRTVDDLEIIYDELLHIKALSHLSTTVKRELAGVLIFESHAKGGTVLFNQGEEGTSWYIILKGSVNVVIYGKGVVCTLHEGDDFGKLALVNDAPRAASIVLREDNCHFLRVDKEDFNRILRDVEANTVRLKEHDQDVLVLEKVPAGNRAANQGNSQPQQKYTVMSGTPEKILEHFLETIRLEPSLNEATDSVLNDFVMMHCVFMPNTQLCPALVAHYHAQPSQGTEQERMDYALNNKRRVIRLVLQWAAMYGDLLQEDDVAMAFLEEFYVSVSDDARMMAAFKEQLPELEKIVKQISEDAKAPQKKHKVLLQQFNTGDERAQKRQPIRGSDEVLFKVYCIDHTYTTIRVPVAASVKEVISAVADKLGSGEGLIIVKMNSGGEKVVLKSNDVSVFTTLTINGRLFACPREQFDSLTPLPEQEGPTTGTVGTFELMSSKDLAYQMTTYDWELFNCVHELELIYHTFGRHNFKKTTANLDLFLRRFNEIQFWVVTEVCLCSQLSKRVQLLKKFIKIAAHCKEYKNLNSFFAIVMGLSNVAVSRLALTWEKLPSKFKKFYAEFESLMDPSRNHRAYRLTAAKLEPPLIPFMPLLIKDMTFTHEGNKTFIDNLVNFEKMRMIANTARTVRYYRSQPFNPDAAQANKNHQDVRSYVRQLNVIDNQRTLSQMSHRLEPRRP
Method: Murine Epac2 was used as all previous structural studies were performed with it.
The activity of Epac was determined by a fluorescence assay. […] The fluorescence intensity of Rap1B•mGDP is approximately twice that of free mGDP, and thus, nucleotide exchange can be observed as a decay in fluorescence upon the addition of excess unlabeled GDP.

Compound | AC50 (Epac1) [µM] | Rel. kmax (Epac1) | AC50 (Epac2^Δ280) [µM] | Rel. kmax (Epac2^Δ280)
Nc1ncnc2c1nc(SCc1ccccc1)n2[C@H]1C[C@@H]2O[P@@](O)(=S)OC[C@H]2O1 [S-221, Sp-8-BnT-2′-dcAMPS] | 280 | 0.06 | 10 | 1.5
CNc1nc2c(N)ncnc2n1[C@@H]1O[C@@H]2COP(=O)(O)O[C@H]2[C@H]1Cl [D-001, 8-MeA-2′-Cl-cAMP] | 330 | ~0.6? | 45 | 2.2
Nc1ncnc2c1nc(SCCc1ccccc1)n2[C@@H]1O[C@@H]2CO[P@](O)(=S)O[C@H]2[C@H]1O [S-190, Sp-8-PheET-cAMPS] | 6 | 0.2 | 0.14 | 0.4
Nc1ncnc2c1nc(Br)n2[C@@H]1O[C@@H]2CO[P@](O)(=S)O[C@H]2[C@H]1F [S-012, Sp-8-Br-2′-F-cAMPS] | 75 | 0.08 | 9.8 | 1.2
Nc1ncnc2c1ncn2[C@@H]1O[C@@H]2COP(=O)(O)O[C@H]2[C@H]1OCc1ccccc1 [Z-008, 2′-O-Bn-cAMP] | 75 | 1.5 | 35 | 0.4
Nc1ncnc2c1ncn2[C@@H]1O[C@@H]2COP(=O)(O)O[C@H]2[C@H]1N [Z-003, 2′-NH2-cAMP] | 80 | 0.8 | 9 | 0.9
CNc1nc2c(N)ncnc2n1[C@H]1C[C@@H]2O[P@@](O)(=S)OC[C@H]2O1 [S-031, Sp-8-MeA-2′-dcAMPS] | 320 | 0.1 | 40 | 1.7
CO[C@@H]1[C@@H]2OP(=O)(O)OC[C@H]2O[C@H]1n1c(Sc2ccc(O)cc2)nc2c(N)ncnc21 [D-008, 8-pOHPT-2′-O-Me-cAMP] | 1 | 3.1 | 1.5 | 2.2
CO[C@H]1C2OP(=O)(O)OC[C@H]2O[C@H]1n1c(Br)nc2c(N)ncnc21 (stereo partly drawn) [D-005, 8-Br-2′-O-Me-cAMP] | 35 | 0.9 | 8 | 1.6
Nc1ncnc2c1nc(O)n2[C@@H]1O[C@@H]2CO[P@](O)(=S)O[C@H]2[C@H]1O [S-130, Sp-8-OH-cAMPS] | 80 | 0.6 | 1.3 | 1.4
Nc1ncnc2c1ncn2[C@@H]1O[C@@H]2COP(=O)(O)O[C@H]2[C@H]1F [Z-002, 2′-F-cAMP] | 1500 |  | 25 | 1.0
Nc1ncnc2c1nc(Br)n2[C@@H]1O[C@@H]2CO[P@](O)(=S)O[C@H]2[C@H]1Cl [S-013, Sp-8-Br-2′-Cl-cAMPS] | 110 | 0.1 | 8 | 0.5
Nc1ncnc2c1nc(Sc1ccc(Cl)cc1)n2[C@@H]1O[C@@H]2COP([O-])(=S)O[C@H]2[C@H]1O.[Na+] (stereo partly shown) [S-210, Sp-8-pCPT-cAMPS] | 2.2 | 0.5 | 0.13 | 0.7
CO[C@H]1C2OP(O)(=S)OC[C@H]2O[C@H]1n1c(Sc2ccc(Cl)cc2)nc2c(N)ncnc21 (stereo partly shown) [S-211, Sp-8-pCPT-2′-O-Me-cAMPS] | 7.3 | 1.9 | 1.4 | 0.4
Nc1ncnc2c1nc(SCc1ccccc1Cl)n2[C@@H]1O[C@@H]2CO[P@](O)(=S)O[C@H]2[C@H]1O [S-270, Sp-8-oCBnT-cAMPS] | 16 | 0.2 | 0.27 | 3.1
Nc1ncnc2c1nc([Se]Cc1ccccc1)n2[C@@H]1O[C@@H]2COP(=O)(O)O[C@H]2[C@H]1OCc1ccccc1 [D-012, 8-BnSe-2′-O-Bn-cAMP] | 38 | 0.9 | 4.6 | 1.0

Compound | AC50 (Epac1) [µM] | Rel. kmax (Epac1) | AC50 (Epac2^Δ280) [µM] | Rel. kmax (Epac2^Δ280)
Nc1ncnc2c1nc(NC1CCCCC1)n2[C@@H]1O[C@@H]2COP(=O)(O)O[C@H]2[C@H]1O [L-013, 8-cHA-cAMP] | 50 | 0.3 | 4.7 | 0.3
O[C@@H]1[C@@H]2OP(O)(=S)OC[C@H]2O[C@H]1n1cnc2cc(Cl)c(Cl)cc21 (stereo partly shown) [S-400, Sp-5,6-DCl-cBIMPS] | 14 | 1.0 | 0.9 | 0.8
COc1ccc(Sc2nc3c(N)ncnc3n2[C@@H]2O[C@@H]3COP(=O)(O)OC3[C@@H]2OC)cc1 (stereo partly drawn) [D-009, 8-pMeOPT-2′-O-Me-cAMP] | 2.3 | 2.7 | 2.8 | 0.5
CNc1nc2c(N)ncnc2n1[C@@H]1O[C@@H]2CO[P@](O)(=S)O[C@H]2[C@H]1Cl [S-033, Sp-8-MeA-2′-Cl-cAMPS] | 120 | 0.1 | 14 | 0.7
Nc1ncnc2c1nc(Cl)n2[C@@H]1O[C@@H]2CO[P@](O)(=S)O[C@H]2[C@H]1Cl [S-021] |  |  | 12 | 0.5
Nc1ncnc2c1nc(N1CCCC1)n2[C@@H]1O[C@@H]2COP(=O)(O)O[C@H]2[C@H]1O [L-017, 8-Pyr-cAMP] |  |  | 3.9 | 4.4
Nc1ncnc2c1nc(N1CCCCC1)n2[C@@H]1O[C@@H]2CO[P@](O)(=S)O[C@H]2[C@H]1O [S-110, Sp-8-PIP-cAMPS] |  |  | 9.5 | 3.7
CNc1nc2c(N)ncnc2n1[C@@H]1O[C@@H]2CO[P@](O)(=S)O[C@H]2[C@H]1OC [S-034, Sp-8-MeA-2′-O-Me-cAMPS] |  |  | 20 | 0.7
CCCO[C@@H]1[C@@H]2OP(=O)(O)OC[C@H]2O[C@H]1n1cnc2c(N)ncnc21 [Z-005, 2′-O-Pr-cAMP] |  |  | 70 | 0.5
Nc1ncnc2c1nc([Se]Cc1ccccc1)n2[C@@H]1O[C@@H]2COP(=O)(O)O[C@H]2[C@H]1O [L-028, 8-BnSe-cAMP] |  |  | 0.03 | 1.7
CC(C)N(C)c1nc2c(N)ncnc2n1[C@@H]1O[C@@H]2CO[P@](O)(=S)O[C@H]2[C@H]1O [S-100, Sp-8-iPrMeA-cAMPS] |  |  | 7 | 4.5
Nc1ncnc2c1nc(NCc1ccccc1)n2[C@@H]1O[C@@H]2COP(=O)(O)O[C@H]2[C@H]1O [L-014, 8-BnA-cAMP] | 30 | 0.2 | 1.9 | 1.5
Nc1ncnc2c1nc(Br)n2[C@@H]1O[C@@H]2COP(=O)(O)O[C@H]2[C@H]1F [D-004, 8-Br-2′-F-cAMP] | 100 | 0.4 | 14 | 1.5
Sp-8-PIA-cAMPS [S-120] |  |  | 14 | 2.3
Nc1ncnc2c1nc(Br)n2[C@@H]1O[C@@H]2COP(=O)(O)O[C@H]2[C@H]1Cl [D-003, 8-Br-2′-Cl-cAMP] | 260 | ~0.5? | 11 | 0.9
C=CCO[C@@H]1[C@@H]2OP(=O)(O)OC[C@H]2O[C@H]1n1cnc2c(N)ncnc21 [Z-007, 2′-O-All-cAMP] |  |  | 70 | 1.0
